From US11191874B2, “Biomaterials for neuronal implants and use of said biomaterials in the diagnosis and therapy of neuronal diseases” (Albert-Ludwigs-U[…], priority 2014, dated 2021) come the findings set out here.

“Also recorded” adds a separate entry of the source. Where no end group is shown, it is not given here.

In one assay the test system is GMB tumor spheroids. In words: U-87 spheroid Matrigel invasion assay. The settings on record: GsMTx4 in culture media, 3D matrix. Type of assay: cell-based. As to the method: Spheroids (which resemble a GBM tumor in vitro) are formed via the hanging drop procedure. For this, cells were seeded into a carboxymethylcellulose solution (with very high viscosity) and pipetted on the inner side of the lid of a cell culture plate. After reversing the lid and putting it back onto the cell culture plate, the cells are hanging in a drop of carboxymethylcellulose. Because of the high viscosity of the media and no possibility to attach, the cells form spheroids. […] During incubation cells start migrating out of the spheroid and invading the 3D matrix. The higher the invasive potential of the cells, the more they will invade the 3D matrix.

The next assay relates to hippocampal neurons. In words: Calcium sensitive FURA-2 imaging of hippocampal neurons after KCl depolarization. Type of assay: cell-based, rat. The note with it: GsMTx4, KCl depolarization. The method, then:
Calcium sensitive imaging: Intracellular calcium levels were measured with the cell permeable probe FURA-2-acetoxymethyl ester (Invitrogen Life Technologies GmbH). Cells were exposed to 5 μM FURA-2-AMin DMSO (final concentration of 0.2%) for 45 minutes in a humidified incubator at 37° C. Increase in intracellular calcium levels following depolarization with 50 mM KCl was analyzed by the change in the absorption and emission spectra of FURA-2 upon Ca^2+ binding using a custom-built perfusion chamber mounted to a Zeiss Observer Z1 and the ZEN blue software (Zeiss AG, Germany).The rate of intracellular Ca^2+ increase was calculated as the slope of the linear portion of the increase in FURA-2 intensity.

For assay [1], the system named is rat hippocampal neurons and astrocytes. In words: Neuron-astrocyte association in mixed primary hippocampal cultures. Type of assay: cell-based. The note with it: GsMTx4 5 μM, smooth glass substrates. From the text:
The inventors therefore evaluated the response of mixed primary cultures of rat hippocampal neurons and astrocytes to the different roughness regimes.
An also remarkable finding was that nanoroughness appeared to modulate the relationship, and dependency of neurons on astrocytes. […] After 5 days, the percent neurons that were associated with astrocytes on the 32 nm Rq surface was around 15%, which was 1.5-2 fold lower than those on other Rq's, which ranged from 20-40%, and 6 fold lower than that on the smooth glass substrate (FIG. 4c). That is, in comparison to the other Rq's, over twice as many neurons on 32 nm Rq surface were surviving independently of astrocytes. At 6 weeks however, the percent of neurons that were surviving independently of astrocytes on the 32 nm Rq was over 6 fold greater in comparison to the other Rq's. While over 90% of neurons were associated with astrocytes on other roughnesses, only 15% of neurons were associated with astrocytes on 32 nm Rq (FIG. 4d). […]
Cell density/composition analysis: In order to analyze the cell density and composition of mixed neuron/astrocyte cultures on the different substrates at the end of the experiments, MAP-2^+, GFAP^+ and Tuj-1^+ cells were counted in 4 separately isolated cultures in 10 random image sections and on two different substrates of each isolated culture.

On to “GsMTx4 (GCLEFWWKCNPNDDKCCRPKLKCSKLFKLCNFSF; ends and bridges not checked; cysteine pairing not given here)”, for which the “formation of sprouts from tumor spheroids (invasiveness)” value with GMB tumor spheroids was “significantly reduced; also recorded: less invasive potential”. For the same substance, the “FURA-2 intensity profile and rate of calcium influx upon depolarization, smooth glass versus Rq=32 nm, upon inhibition of Piezo-1” value in the assay with hippocampal neurons is “is lost upon inhibition of Piezo-1; also recorded: identical”. Besides, the “neuron-astrocyte coupling upon inhibition of Piezo-1 (FAM38A)” value in assay [1] is recorded as “neurons decouple from astrocytes even on smooth glass substrates; also recorded: decoupling of hippocampal neurons from astrocytes”.
